Source: PubChem BioAssay AID2060897 (Molecular Pharmacology Branch, DTP, NCI, 2025)
pIC50: −log10 of the molar value. Where “and” joins values, the source holds several entries; their conditions need not be identical. Equal entries are not always repeated.

Tested on: 966289-007-R4-J1-PDC complex spheroid viability
Experiment: Anticancer human tumor 966289-007-R4-J1-PDC patient-derived pancreatic adenocarcinoma cell line growth inhibition [RAS]
Conditions: for viability, T/C: stronger effect = lower value
Method in brief: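 Tumour cells grown as complex spheroids with HUVEC endothelial cells and mesenchymal stem cells, treated with RAS pathway inhibitor combinations. Each agent spans half-log steps from near clinical Cmax, or 10 microM where Cmax is unknown.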

[1] = curve of first compound, second compound 0.000949 µM
[2] = curve of first compound, second compound 0.003 µM
[3] = curve of first compound, second compound 0.00949 µM
[4] = curve of first compound, second compound 0.03 µM
[5] = curve of first compound, second compound 0.0949 µM
[6] = curve of first compound, second compound 0.3 µM
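Also: spheroids exposed to agents for one week before readout.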
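For viability, T/C in this document: percent viability relative to DMSO vehicle control wells as 100%.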

CC1(C)CCC(Nc2ncc(C(F)(F)F)c(-c3c[nH]c4c(P(C)(C)=O)c(C#N)ccc34)n2)CN1 (configuration not stated) + CCn1c(-c2cc(N3CCN(C)CC3)cnc2C(C)OC)c2c3cc(ccc31)-c1csc(n1)CC(NC(=O)C1CC1C)C(=O)N1CCCC(N1)C(=O)OCC(C)(C)C2
pIC50 [1]: 8.16
pIC50 [2]: 8.17
pIC50 [3]: 8.16
pIC50 [4]: 8.12
pIC50 [5]: 8.13
pIC50 [6]: 8.21
viability, T/C (second compound 0.000949 µM, first compound 0.000949 µM): 124%
viability, T/C (second compound 0.000949 µM, first compound 0.003 µM): 104%
viability, T/C (second compound 0.000949 µM, first compound 0.00949 µM): 29%
viability, T/C (second compound 0.000949 µM, first compound 0.03 µM): 14.5%
viability, T/C (second compound 0.000949 µM, first compound 0.0949 µM): 8.71%
viability, T/C (second compound 0.000949 µM, first compound 0.3 µM): 9.97%
viability, T/C (second compound 0.003 µM, first compound 0.000949 µM): 134%
viability, T/C (second compound 0.003 µM, first compound 0.003 µM): 99.9%
viability, T/C (second compound 0.003 µM, first compound 0.00949 µM): 29.9%
viability, T/C (second compound 0.003 µM, first compound 0.03 µM): 8.54%
viability, T/C (second compound 0.003 µM, first compound 0.0949 µM): 10.7%
viability, T/C (second compound 0.003 µM, first compound 0.3 µM): 9.36%
viability, T/C (second compound 0.00949 µM, first compound 0.000949 µM): 130%
viability, T/C (second compound 0.00949 µM, first compound 0.003 µM): 116%
viability, T/C (second compound 0.00949 µM, first compound 0.00949 µM): 26%
viability, T/C (second compound 0.00949 µM, first compound 0.03 µM): 14.3%
viability, T/C (second compound 0.00949 µM, first compound 0.0949 µM): 12.3%
viability, T/C (second compound 0.00949 µM, first compound 0.3 µM): 11.2%
viability, T/C (second compound 0.03 µM, first compound 0.000949 µM): 113%
viability, T/C (second compound 0.03 µM, first compound 0.003 µM): 115%
viability, T/C (second compound 0.03 µM, first compound 0.00949 µM): 34%
viability, T/C (second compound 0.03 µM, first compound 0.03 µM): 16.7%
viability, T/C (second compound 0.03 µM, first compound 0.0949 µM): 12.3%
viability, T/C (second compound 0.03 µM, first compound 0.3 µM): 10.1%
viability, T/C (second compound 0.0949 µM, first compound 0.000949 µM): 122%
viability, T/C (second compound 0.0949 µM, first compound 0.003 µM): 139%
viability, T/C (second compound 0.0949 µM, first compound 0.00949 µM): 27.6%
viability, T/C (second compound 0.0949 µM, first compound 0.03 µM): 12.7%
viability, T/C (second compound 0.0949 µM, first compound 0.0949 µM): 13.7%
viability, T/C (second compound 0.0949 µM, first compound 0.3 µM): 9.77%
viability, T/C (second compound 0.3 µM, first compound 0.000949 µM): 128%
viability, T/C (second compound 0.3 µM, first compound 0.003 µM): 86.9%
viability, T/C (second compound 0.3 µM, first compound 0.00949 µM): 27.7%
viability, T/C (second compound 0.3 µM, first compound 0.03 µM): 12.8%
viability, T/C (second compound 0.3 µM, first compound 0.0949 µM): 12.7%
viability, T/C (second compound 0.3 µM, first compound 0.3 µM): 11.7%

CC(Nc1ccc2c(c1)OCCn1cc(N3C(=O)OCC3C(F)F)nc1-2)C(N)=O (configuration not stated)
viability, T/C (compound 0.316 µM): 101% (2×) and 121% and 106%
viability, T/C (compound 10 µM): 87.9% [middle of 4 runs]
pIC50 (curve of compound): < 5.00

CC(C)n1nc(-c2ccc3oc(N)nc3c2)c2c(N)ncnc21 + CCn1c(-c2cccnc2C(C)OC)c2c3cc(ccc31)N1CCOC(CC(NC(=O)C(C(C)C)N(C)C(=O)C3(F)CCN(C(=O)C#CC(C)(C)N(C)C)CC3)C(=O)N3CCCC(N3)C(=O)OCC(C)(C)C2)C1
pIC50 [1]: 7.61
pIC50 [2]: 7.53
pIC50 [3]: 7.54
pIC50 [4]: 7.50
pIC50 [5]: 7.53
pIC50 [6]: 7.61
viability, T/C (second compound 0.000949 µM, first compound 0.000316 µM): 101%
viability, T/C (second compound 0.000949 µM, first compound 0.001 µM): 88.1%
viability, T/C (second compound 0.000949 µM, first compound 0.00316 µM): 133%
viability, T/C (second compound 0.000949 µM, first compound 0.01 µM): 73.4%
viability, T/C (second compound 0.000949 µM, first compound 0.0316 µM): 45.9%
viability, T/C (second compound 0.000949 µM, first compound 0.1 µM): 14.3%
viability, T/C (second compound 0.003 µM, first compound 0.000316 µM): 82.1%
viability, T/C (second compound 0.003 µM, first compound 0.001 µM): 102%
viability, T/C (second compound 0.003 µM, first compound 0.00316 µM): 116%
viability, T/C (second compound 0.003 µM, first compound 0.01 µM): 75.9%
viability, T/C (second compound 0.003 µM, first compound 0.0316 µM): 50.8%
viability, T/C (second compound 0.003 µM, first compound 0.1 µM): 15.4%
viability, T/C (second compound 0.00949 µM, first compound 0.000316 µM): 67.1%
viability, T/C (second compound 0.00949 µM, first compound 0.001 µM): 111%
viability, T/C (second compound 0.00949 µM, first compound 0.00316 µM): 95.8%
viability, T/C (second compound 0.00949 µM, first compound 0.01 µM): 90.2%
viability, T/C (second compound 0.00949 µM, first compound 0.0316 µM): 46.1%
viability, T/C (second compound 0.00949 µM, first compound 0.1 µM): 20.3%
viability, T/C (second compound 0.03 µM, first compound 0.000316 µM): 56.9%
viability, T/C (second compound 0.03 µM, first compound 0.001 µM): 96.6%
viability, T/C (second compound 0.03 µM, first compound 0.00316 µM): 111%
viability, T/C (second compound 0.03 µM, first compound 0.01 µM): 91.8%
viability, T/C (second compound 0.03 µM, first compound 0.0316 µM): 50.1%
viability, T/C (second compound 0.03 µM, first compound 0.1 µM): 15%
viability, T/C (second compound 0.0949 µM, first compound 0.000316 µM): 58.4%
viability, T/C (second compound 0.0949 µM, first compound 0.001 µM): 96%
viability, T/C (second compound 0.0949 µM, first compound 0.00316 µM): 106%
viability, T/C (second compound 0.0949 µM, first compound 0.01 µM): 81.3%
viability, T/C (second compound 0.0949 µM, first compound 0.0316 µM): 48.4%
viability, T/C (second compound 0.0949 µM, first compound 0.1 µM): 18.2%
viability, T/C (second compound 0.3 µM, first compound 0.000316 µM): 115%
viability, T/C (second compound 0.3 µM, first compound 0.001 µM): 96.7%
viability, T/C (second compound 0.3 µM, first compound 0.00316 µM): 84%
viability, T/C (second compound 0.3 µM, first compound 0.01 µM): 89.7%
viability, T/C (second compound 0.3 µM, first compound 0.0316 µM): 38.6%
viability, T/C (second compound 0.3 µM, first compound 0.1 µM): 16.4%
